The text below walks through data of patent publication US20160228506A1, “Compositions and Formulations for Prevention and Reduction of Tumorigenesis, Cancer Cell Proliferation and Invasion, and Methods of Production and Use Thereof in Cancer Treatment” (PRONUTRIA, INC., priority 2013, published 2016).

pKd: −log10 of the molar value.

A short description of series [1]: Intact half-life during simulated gastric fluid (SGF) digestion. Conditions: SGF pH 1.5, pepsin:polypeptide 1:20 w/w, 37° C.; intact protein.
Description: In this experiment the nutritive polypeptide was exposed to a series of proteases that are active in the stomach (pepsin) and intestine (trypsin and chymotrypsin), and the presence of intact protein was measured over time. Specifically, the nutritive polypeptide was first treated at a concentration of 2 g/L with simulated gastric fluid (SGF) (0.03 M NaCl, titrated with HCl to pH 1.5 with a final pepsin:polypeptide ratio of 1:20 w/w) at 37° C. Time points were sampled from the reaction and quenched by addition of 0.2 M Na2CO3. […] Time points were sampled from the reaction and quenched by addition of Trypsin/Chymotrypsin Inhibitor (Sigma) solution until 240 min.
Time point samples were analyzed for intact protein by chip electrophoresis, polyacrylamide gel electrophoresis, or western blot. For chip electrophoresis (Labchip GX II), samples were analyzed using a HT Low MW Protein Express LabChip® Kit (following the manufacturer's protocol). A protein ladder was loaded every 12 samples for molecular weight determination (kDa) and quantification. For polyacrylamide gel electrophoresis, samples (1 μg) were separated on a NuPAGE® Novex® Bis-Tris Precast gel (Life Technologies) according to the manufacturer's protocol. The gel was stained using SimplyBlue™ SafeStain (Invitrogen) and imaged using a Chemidoc XRS+ (BioRad) or transferred onto nitrocellulose membranes using the iBlot® Dry Blotting System (Life Technologies) and iBlot® Western Detection Kit (Life Technologies) according to the manufacturer's protocol. Proteins were detected by blotting with Anti-His [C-term]-HRP antibody diluted 3:5000 in Blok™-PO Blocking Buffer using the SNAP I.d.® Protein Detection System (Millipore) according to the manufacturer's protocol. Blots were treated with Luminata Classico Western HRP Substrate (Millipore) according to the manufacturer's protocol and imaged using chemiluminescent detection on the Molecular Imager® Gel Doc™ XR+ System (Bio-Rad). Quantification of intact protein was determined by densitometry using ImageLab (BioRad). For all analysis methods the relative concentration of the polypeptide at each time point (if detected) was plotted overtime and fit to an exponential curve to calculate the intact half-life.
Specifically, the t=0 (enzyme-free control) and t=2 min samples from the SGF digest were analyzed for intact protein as described by chip electrophoresis, SDS-PAGE, western blot, and/or LC-MS/MS. Relative quantities of polypeptides at each time point were determined and the percentage of intact protein remaining at t=2 was determined. Intact half-life values determined using this method are reported as greater or less than 2 min to indicate more or less than 50% of the protein remained intact at t=2 min, respectively.
The subject of another series is burn injury. The conditions noted are these: 0.35 g/kg supplementation, cited from earlier work.
A further series deals with healthy subjects. Conditions: oral supplementation, vs control; cited from earlier work.
The subject of series [2] is ribosomal protein S6 (rps6). The series can be described thus: AlphaScreen SureFire rps6 phosphorylation in primary rat skeletal muscle cells. The class given is cell-based. Conditions: primary RSkMC, different Leucine concentrations.
Description: Primary Rat Skeletal Muscle Cell (RSKMC) culture. RSKMC were isolated using protocol described herein and cryopreserved in liquid nitrogen. The cells were also maintained in RSKMC medium (Cell Applications) in T75 tissue flask in a 37° C., 5% CO2 tissue culture incubator (Model 3110, Thermo Fisher Scientific). The cells were split every three day when they reached ˜90% confluency. RSKMC cells were cultured in RSKMC medium in T75 tissue flask to 100% confluency. The culture medium was aspirated from the culture flask and rinsed once with 10 ml of DPBS, and then 1.5 ml of 0.25% trypsin/EDTA was added to the cells. After the cells were detached from the flask, 10 ml of culture medium were added. The medium was pipetted up and down with a 10 ml pipet to detach the cells from the flask. The cells were then seeded into clear bottom 96-well tissue culture plates at a density of 50,000 cells per well. Following overnight culture in a 37° C., 5% CO2 incubator, the cells were starved over a period of 4 hours with starvation DME/F12 medium without FBS and leucine in a 37° C., 5% CO2 tissue culture incubator, then starved for another hour incubation with Hank's Buffered Salt Solution (HBSS). The cells were stimulated with different concentrations of leucine in starvation medium for 15 and 30 minutes. […]
Another series has as its system male Zucker fatty rats. The series can be described thus: OGTT in Zucker fatty rats: SEQID-00105, alogliptin and combination, blood glucose. It is filed as in vivo, rat. Conditions: OGTT glucose 2 g/kg. The procedure: In another experiment, an OGTT was performed in 24, fasted, male Zucker fatty rats with indwelling jugular vein catheters (JVC) to assess the acute effects of nutritive protein dosing on glycemic control as well as insulin and GLP-1 levels. The capacity of SEQID-00105 to improve glucose control was tested by comparing the blood glucose excursion of SEQID-00105 to alogliptin to SEQID-00105+alogliptin to vehicle in the context of an oral glucose tolerance test. All rodents were approximately 10-11 weeks old, weighed average of approximately 430 g and acclimated for 4-5 days prior to testing. Prior to treatment, all rats were fasted overnight for fourteen hours. […] N=6 rats per treatment group. The error bars shown are the standard errors of the mean. Each group was compared post hoc on GraphPad Prism 6, two-way ANOVA, Dunnett's multiple comparisons test first comparing within each group to the fasting glucose concentration, followed by a comparison of each time point to vehicle. […] The integrated area under curve (AUC) was calculated on Microsoft Excel using the Linear-Log Trapezoidal Method and two-way ANOVA and Dunnett's multiple comparisons tests was conducted on GraphPad Prism 6.03.

The subject of series [3] is serotonin (5-HT) synthesis. The conditions noted are these: oral intake of free Tryptophan; cited from earlier work.
Series [4] can be described thus: Thermostability, temperature of aggregation (ProteoStat Thermal Shift). It is filed as physicochemical. The conditions noted are these: Table E31D; heated 25° C. to 95° C. The method, then:
The thermostability of proteins in a buffer cocktail of Citric Acid and Dibasic Sodium Phosphate over a pH range of 2.8 to 7.1 (preparation described above in Table E31B) was determined using the ProteoStat® Thermal Shift Stability Kit (Enzo Life Sciences) according to the manufacturer's standard protocol. Briefly, protein solutions (˜10 mg/ml) containing 1× ProteoStat TS Detection Reagent were heated from 25° C. to 95° C. at a rate of 0.5° C. per 30 sec using a real-time PCR (rtPCR) thermocycler (BioRad) equipped with a plate reader (SynergyMx, Biotek) while monitoring the fluorescence with a Texas Red filter.

In a further series the target is T1, Human transglutaminase (Homo sapiens, UniProt Q08188).
T1 sequence (Q08188 1-693): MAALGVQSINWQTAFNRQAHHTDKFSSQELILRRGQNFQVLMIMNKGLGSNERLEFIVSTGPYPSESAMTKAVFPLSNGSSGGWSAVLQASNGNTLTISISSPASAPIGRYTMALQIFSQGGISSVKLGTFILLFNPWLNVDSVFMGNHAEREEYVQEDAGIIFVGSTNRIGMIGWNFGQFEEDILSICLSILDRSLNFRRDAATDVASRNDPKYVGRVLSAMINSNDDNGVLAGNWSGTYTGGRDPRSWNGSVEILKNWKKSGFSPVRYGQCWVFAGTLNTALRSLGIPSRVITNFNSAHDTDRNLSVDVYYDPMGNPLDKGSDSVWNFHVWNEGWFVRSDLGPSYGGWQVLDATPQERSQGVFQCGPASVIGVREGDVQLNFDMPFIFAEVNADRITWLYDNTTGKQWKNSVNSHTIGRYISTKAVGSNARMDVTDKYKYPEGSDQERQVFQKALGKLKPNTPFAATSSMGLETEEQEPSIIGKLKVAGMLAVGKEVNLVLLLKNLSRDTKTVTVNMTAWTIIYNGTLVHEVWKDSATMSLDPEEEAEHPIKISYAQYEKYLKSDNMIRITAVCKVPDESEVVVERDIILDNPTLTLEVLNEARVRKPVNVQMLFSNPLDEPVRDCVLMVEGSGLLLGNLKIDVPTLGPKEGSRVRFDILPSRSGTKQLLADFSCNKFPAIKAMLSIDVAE
Conditions: read-out: Kd for calcium; cited from earlier work.

Series [5] can be described thus: SGF digest of 168 nutritive polypeptide library, intact protein by LC-MS/MS. The class given is in vitro ADME. Conditions: 168 nutritive polypeptide library SGF digest, LC-MS/MS spectral counts. The procedure:
The in vitro intact half-life of multiple polypeptides in a complex mixture was determined using the simulated gastric in vitro digestion described above. Briefly, the 168 nutritive polypeptide library was generated as described herein by cloning, transforming, and expressing a gene library encoding 168 proteins as a single mixture. The recombinantly expressed proteins were purified from host cell proteins by IMAC purification as described herein.
The 168 Protein Library was treated with SGF as described above and the t=0 and t=10 min samples were analyzed for intact protein by LC-MS/MS. To begin, 10 μg of sample was loaded onto a 10% SDS-PAGE gel (Invitrogen) and run approximately 5 cm into the gel. The gel was excised into ten fractions from 100 kD to the dye front and the gel slices were processed by washing with 25 mM ammonium bicarbonate, followed by acetonitrile. Gel fractions were then reduced with 10 mM dithiothreitol at 60° C., followed by alkylation with 50 mM iodoacetamide at room temperature. […] The samples were then analyzed by nano LC/MS/MS using an EasynLC 1000 HPLC system interfaced to a ThermoFisher Q Exactive. […] A full list of detected proteins and their spectral counts (SpC) was generated and reported as a function of each collected gel fraction. […]

In general, pKd refers to −log10 of the Kd, conventionally taken in molar units.

Consider “SEQID-00212: nutritive polypeptide (LEEAKKKLLKDVEVLSQRLEEKALAYDKLEKTKTRLQQELDDLLVDLDHQ; listed as Bos taurus)”, for which the “SGF Half-life (t½)” value in series [1] was 18 s.
As to `NC(=O)CC[C@H](N)C(=O)O` [Glutamine], the “reduction in hospital stay” value in the series on burn injury (12-day burn injury study) is 6 days. Moreover, in the series with burn injury (after 3 days, vs 5.5× decrease), the “decrease in Lactulose/mannitol ratio” value is 8.8 ×.
For `N=C(N)NCCC[C@H](N)C(=O)O` [arginine, Arginine], the “increase in collagen deposition at wound sites” value in the series on healthy subjects is 2.4 ×.
As for `CC(C)C[C@H](N)C(=O)O` [leucine], the “phosphorylation of rps6” value in series [2] is recorded as “stimulates phorphorylation of rps6 in primary RSkMC in a dose-dependent manner”.
As to `Cn1c(=O)cc(N2CCC[C@@H](N)C2)n(Cc2ccccc2C#N)c1=O` [Alogliptin], the figures for the “blood glucose compared to vehicle” value in the series on male Zucker fatty rats (at 30 minutes following glucose challenge) and with male Zucker fatty rats (at 60 minutes following glucose challenge) were “significantly lower blood glucose than vehicle” and “significantly lower than vehicle”, respectively. Further, the “glucose AUC compared to vehicle” value in the series on male Zucker fatty rats (between time 0 and 120 minutes, P=0.0051) is reported as “significantly less than vehicle”; in the series with male Zucker fatty rats (between time 0 and 240 minutes, P=0.0054), “significantly less than vehicle”.
Take “SEQID-00218: nutritive polypeptide (GTIENLEEAKKKLLKDVEVLSQRLEEKALAYDKLEKTKTRLQQELDDLLVDLDHQ; listed as Bos taurus)”: in [1], the “SGF Half-life (t½)” value is 360 s.
With `N[C@@H](Cc1c[nH]c2ccccc12)C(=O)O` [Tryptophan], the “increase of 5-HT production” value in series [3] is 2 fold.
“SEQID-00237: nutritive polypeptide (EEDKVNTLTKAKTKLEQQVDDLEGSLEQEKKLRMDLERAKRKLEGDLKLA; listed as Bos taurus)”: the “Tagg (pH 7.1)” value in series [4] is listed as 45. Further, the “SGF Half-life (t½)” value in [1] is 36 s.
Turning to “SEQID-00143: nutritive polypeptide (LYLEEVSKNLVEINPLKLEVKAKPWFVYTPMHGVGFDIFSTIVKKTLCLVEGK; listed as Saccharomyces cerevisiae)”, the “SGF Half-life (t½)” value in series [1] was 18 s.
Take `[Ca+2]` [calcium, calcium (Ca2+)]: the pKd at Human transglutaminase is 5.52 to 6.52.
For the molecule “SEQID-00615: protein of the 168 nutritive polypeptide library (MAGIIHKIEETLHMGGGRKEEEEKRKGEGQGHGGYKGEGQGHGGYKGEGQG; listed as Vitis vinifera)”, the “% Intact Protein at 10 min” value in [5] is listed as 85.7%.
In the case of “SEQID-00215: nutritive polypeptide (KKLLKDVEVLSQRLEEKALAYDKLEKTKTRLQQELDDLLVDLDHQRQIVSNLEKK; listed as Bos taurus)”, in series [1], the “SGF Half-life (t½)” value was 120 s.
